Reference: US11083707B2, “Substituted indoline derivatives as dengue viral replication inhibitors” (JANSSEN PHARMACEUTICALS, INC., priority 2017, dated 2021)

Test system: Vero cells
Experiment: not given
Settings: African green monkey
COc1cc(NC(C(=O)N2CCc3cc(F)c(OC(F)(F)F)cc32)c2ccc(Cl)cc2OCCCC(=O)O)cc(-n2cncn2)c1 (single isomer, unassigned) [Compound 15B] gave a CC50 of 11000 nM.

Test system: DENV-2 strain 16681
Experiment: Tetravalent RT-qPCR assay Protocol A, serotype 2
Type: cell-based
Settings: Dengue virus, DENV2, 72 h; RT-qPCR serotype 2 16681, Vero cells, day 3; read-out: EC50
Description: (§1) The antiviral activity of the compounds of the invention was tested against DENV-1 strain TC974#666 (NCPV), DENV-2 strain 16681, DENV-3 strain H87 (NCPV) and DENV-4 strain H241 (NCPV) in a RT-qPCR assay. Therefore, Vero cells were infected with either DENV-1, or -2, or -3, or -4 in the presence or absence of test compounds. At day 3 post-infection, the cells were lysed and cell lysates were used to prepare cDNA of both a viral target (the 3′UTR of DENV; Table 2) and a cellular reference gene (β-actin, Table 2). Subsequently, a duplex real time PCR was performed on a Lightcycler480 instrument. The generated Cp value is inversely proportional to the amount of RNA expression of these targets. Inhibition of DENV replication by a test compound results in a shift of Cp's for the 3′UTR gene. On the other hand, if a test compound is toxic to the cells, a similar effect on β-actin expression will be observed. The comparative ΔΔCp method is used to calculate EC50, which is based on the relative gene expression of the target gene (3′UTR) normalized with the cellular housekeeping gene (β-actin). In addition, CC50 values are determined based on the Cp values acquired for the housekeeping gene β-actin.
(§2) The culture medium consisted of minimal essential medium supplemented with 2% of heat-inactivated fetal calf serum, 0.04% gentamycin (50 mg/mL) and 2 mM of L-glutamine. Vero cells, obtained from ECACC, were suspended in culture medium and 75 μL/well was added in 96-well plates (10000 cells/well), which already contain the antiviral compounds. […] In addition, each plate contains wells which are assigned as virus controls (containing cells and virus in the absence of compound) and cell controls (containing cells in the absence of virus and compound). Once the cells were added in the plates, the plates were incubated in a fully humidified incubator (37° C., 5% CO2) until the next day. Dengue viruses serotype-1, 2, 3 and 4 were diluted in order to obtain a Cp of ˜22-24 in the assay. Therefore, 25 μL of virus suspension was added to all the wells containing test compound and to the wells assigned as virus control. In parallel, 25 μL of culture medium was added to the cell controls. Next, the plates were incubated for 3 days in a fully humidified incubator (37° C., 5% CO2). After 3 days, the supernatant was removed from the wells and the cells were washed twice with ice-cold PBS (˜100 μL). The cell pellets within the 96-well plates were stored at −80° C. for at least 1 day. Next, RNA was extracted using the Cells-to-CT™ lysis kit, according to the manufacturer's guideline (Life Technologies). The cell lysates can be stored at −80° C. or immediately used in the reverse transcription step.
(§3) In preparation of the reverse transcription step, mix A (table 3A) was prepared and 7.57 μL/well was dispensed in a 96-well plate. After addition of 5 μL of the cell lysates, a five minute denaturation step at 75° C. was performed (table 3B). Afterwards, 7.43 μL of mix B was added (table 3C) and the reverse transcription step was initiated (table 3D) to generate cDNA.
(§4) Finally, a RT-qPCR mix was prepared, mix C (table 4A), and 22.02 μL/well was dispensed in 96-well LightCycler qPCR plates to which 3 μL of cDNA was added and the qPCR was performed according to the conditions in table 4B on a LightCycler 480.
(§5) Using the LightCycler software and an in-house LIMS system, dose response curves for each compound were calculated and the half maximal effective concentration (EC50) and the half maximal cytotoxic concentration (CC50) were determined (Tables 5-8).
For COc1cc(NC(C(=O)N2CCc3ccc(OC(F)(F)F)cc32)c2ccc(Cl)cc2OCCO)cc(-n2cncn2)c1 (single isomer, unassigned) [Compound 6A], the EC50 was 0.49 nM. For COc1cc(NC(C(=O)N2CCc3cc(OC)c(C(F)(F)F)cc32)c2ccc(Cl)cc2OCCCC(=O)O)cc(-n2cncn2)c1 (single isomer, unassigned) [Compound 12A], the EC50 was 0.42 nM. Molecule COc1cc(NC(C(=O)N2CCc3ccc(OC(F)(F)F)cc32)c2ccc(Cl)cc2OCCCC(=O)O)cc(-n2cncn2)c1 (single isomer, unassigned) [Compound 13A] has an EC50 of 0.057 nM.

Same assay, conditions: Dengue virus, DENV2, Vero, 72 h
Molecule COc1cc(NC(C(=O)N2CCc3cc(OC)c(OC(F)(F)F)cc32)c2ccc(Cl)cc2OCCO)cc(-n2cncn2)c1 (single isomer, unassigned) [Compound 8A] has an EC50 of 0.38 nM. COc1cc(NC(C(=O)N2CCc3cc(F)c(OC(F)(F)F)cc32)c2ccc(Cl)cc2OCCCC(=O)O)cc(-n2cncn2)c1 (single isomer, unassigned) [Compound 15B] showed an EC50 of 0.1 nM.

Test system: not listed separately
Experiment: in vitro
Type: cell-based
Settings: African green monkey
Description: as §1, §2, §3, §4, §5
COc1cc(NC(C(=O)N2CCc3ccc(OC(F)(F)F)cc32)c2ccc(Cl)cc2OCCCC(=O)O)cc(-n2cncn2)c1 (single isomer, unassigned) [Compound 13A] gave a CC50 at 3 days of over 2500 nM.

Test system: DENV-4 strain H241
Experiment: Tetravalent RT-qPCR assay Protocol A, serotype 4
Type: cell-based
Settings: Dengue virus, DENV4, 72 h; RT-qPCR serotype 4 H241, Vero cells, day 3
Description: as §1, §2, §3, §4, §5
Work on COc1cc(NC(C(=O)N2CCc3ccc(OC(F)(F)F)cc32)c2ccc(Cl)cc2OCCO)cc(-n2cncn2)c1 (single isomer, unassigned) [Compound 6A] yielded an EC50 of 60 nM. Molecule COc1cc(NC(C(=O)N2CCc3cc(OC)c(OC(F)(F)F)cc32)c2ccc(Cl)cc2OCCO)cc(-n2cncn2)c1 (single isomer, unassigned) [Compound 8A] has an EC50 of 56 nM. COc1cc(NC(C(=O)N2CCc3cc(OC)c(C(F)(F)F)cc32)c2ccc(Cl)cc2OCCCC(=O)O)cc(-n2cncn2)c1 (single isomer, unassigned) [Compound 12A] showed an EC50 of 100 nM. COc1cc(NC(C(=O)N2CCc3ccc(OC(F)(F)F)cc32)c2ccc(Cl)cc2OCCCC(=O)O)cc(-n2cncn2)c1 (single isomer, unassigned) [Compound 13A] showed an EC50 of 10 nM. With COc1cc(NC(C(=O)N2CCc3cc(F)c(OC(F)(F)F)cc32)c2ccc(Cl)cc2OCCCC(=O)O)cc(-n2cncn2)c1 (single isomer, unassigned) [Compound 15B] the EC50 was 15 nM.

Test system: not listed separately
Experiment: in vitro
Settings: African green monkey
Remark: another data set of the same source
COc1cc(NC(C(=O)N2CCc3ccc(OC(F)(F)F)cc32)c2ccc(Cl)cc2OCCO)cc(-n2cncn2)c1 (single isomer, unassigned) [Compound 6A] showed a CC50 of 8500 nM. Work on COc1cc(NC(C(=O)N2CCc3cc(OC)c(OC(F)(F)F)cc32)c2ccc(Cl)cc2OCCO)cc(-n2cncn2)c1 (single isomer, unassigned) [Compound 8A] yielded a CC50 of 12000 nM. COc1cc(NC(C(=O)N2CCc3cc(OC)c(C(F)(F)F)cc32)c2ccc(Cl)cc2OCCCC(=O)O)cc(-n2cncn2)c1 (single isomer, unassigned) [Compound 12A] gave a CC50 of 13000 nM. COc1cc(NC(C(=O)N2CCc3ccc(OC(F)(F)F)cc32)c2ccc(Cl)cc2OCCCC(=O)O)cc(-n2cncn2)c1 (single isomer, unassigned) [Compound 13A] showed a CC50 of 12000 nM.

Test system: DENV-1 strain TC974#666
Experiment: Tetravalent RT-qPCR assay Protocol A, serotype 1
Type: cell-based
Settings: Dengue virus, DENV1, 72 h; RT-qPCR serotype 1 TC974#666, Vero cells, day 3
Description: as §1, §2, §3, §4, §5
In the case of COc1cc(NC(C(=O)N2CCc3ccc(OC(F)(F)F)cc32)c2ccc(Cl)cc2OCCO)cc(-n2cncn2)c1 (single isomer, unassigned) [Compound 6A], the EC50 is reported as 0.64 nM. Work on COc1cc(NC(C(=O)N2CCc3cc(OC)c(OC(F)(F)F)cc32)c2ccc(Cl)cc2OCCO)cc(-n2cncn2)c1 (single isomer, unassigned) [Compound 8A] yielded an EC50 of 2 nM. Molecule COc1cc(NC(C(=O)N2CCc3cc(OC)c(C(F)(F)F)cc32)c2ccc(Cl)cc2OCCCC(=O)O)cc(-n2cncn2)c1 (single isomer, unassigned) [Compound 12A] has an EC50 of 2.1 nM. Molecule COc1cc(NC(C(=O)N2CCc3ccc(OC(F)(F)F)cc32)c2ccc(Cl)cc2OCCCC(=O)O)cc(-n2cncn2)c1 (single isomer, unassigned) [Compound 13A] has an EC50 of 0.12 nM. Molecule COc1cc(NC(C(=O)N2CCc3cc(F)c(OC(F)(F)F)cc32)c2ccc(Cl)cc2OCCCC(=O)O)cc(-n2cncn2)c1 (single isomer, unassigned) [Compound 15B] has an EC50 of 0.13 nM.

Test system: DENV-3 strain H87
Experiment: Tetravalent RT-qPCR assay Protocol A, serotype 3
Type: cell-based
Settings: Dengue virus, DENV3, 72 h; RT-qPCR serotype 3 H87, Vero cells, day 3
Description: as §1, §2, §3, §4, §5
With COc1cc(NC(C(=O)N2CCc3ccc(OC(F)(F)F)cc32)c2ccc(Cl)cc2OCCO)cc(-n2cncn2)c1 (single isomer, unassigned) [Compound 6A] the EC50 was 8.1 nM. COc1cc(NC(C(=O)N2CCc3cc(OC)c(OC(F)(F)F)cc32)c2ccc(Cl)cc2OCCO)cc(-n2cncn2)c1 (single isomer, unassigned) [Compound 8A] gave an EC50 of 15 nM. Molecule COc1cc(NC(C(=O)N2CCc3cc(OC)c(C(F)(F)F)cc32)c2ccc(Cl)cc2OCCCC(=O)O)cc(-n2cncn2)c1 (single isomer, unassigned) [Compound 12A] has an EC50 of 36 nM. In the case of COc1cc(NC(C(=O)N2CCc3ccc(OC(F)(F)F)cc32)c2ccc(Cl)cc2OCCCC(=O)O)cc(-n2cncn2)c1 (single isomer, unassigned) [Compound 13A], the EC50 is reported as 1.8 nM. Molecule COc1cc(NC(C(=O)N2CCc3cc(F)c(OC(F)(F)F)cc32)c2ccc(Cl)cc2OCCCC(=O)O)cc(-n2cncn2)c1 (single isomer, unassigned) [Compound 15B] has an EC50 of 2.8 nM.

Test system: DENV-2 16681 strain
Experiment: DENV-2 antiviral assay (eGFP fluorescence, Vero cells)
Type: cell-based, Dengue virus
Settings: DENV-2 16681 eGFP, MOI 0.5, 3 days
Description: The antiviral activity of all the compounds of the invention was tested against the DENV-2 16681 strain which was labeled with enhanced green fluorescent protein (eGPF). The culture medium consists of minimal essential medium supplemented with 2% of heat-inactivated fetal calf serum, 0.04% gentamycin (50 mg/mL) and 2 mM of L-glutamine. Vero cells, obtained from ECACC, were suspended in culture medium and 25 μL was added to 384-well plates (2500 cells/well), which already contain the antiviral compounds. Typically, these plates contain a 5-fold serial dilution of 9 dilution steps of the test compound at 200 times the final concentration in 100% DMSO (200 nL). […] Finally, each plate contains wells which are assigned as virus controls (containing cells and virus in the absence of compound), cell controls (containing cells in the absence of virus and compound) and medium controls (containing medium in the absence of cells, virus and compounds). To the wells assigned as medium control, 25 μL of culture medium was added instead of Vero cells. Once the cells were added to the plates, the plates were incubated for 30 minutes at room temperature to allow the cells to distribute evenly within the wells. Next, the plates were incubated in a fully humidified incubator (37° C., 5% CO2) until the next day. Then, DENV-2 strain 16681, labeled with eGFP, was added at a multiplicity of infection (MOI) of 0.5. Therefore, 15 μL of virus suspension was added to all the wells containing test compound and to the wells assigned as virus control. In parallel, 15 μL of culture medium was added to the medium and cell controls. Next, the plates were incubated for 3 days in a fully humidified incubator (37° C., 5% CO2). At the day of the read out, the eGFP fluorescence was measured using an automated fluorescence microscope at 488 nm (blue laser). Using an in-house LIMS system, inhibition dose response curves for each compound were calculated and the half maximal effective concentration (EC50) was determined. Therefore, the percent inhibition (I) for every test concentration is calculated using the following formula: I=100*(ST-SCC)/(SVC-SCC), ST, SCC and SVC are the amount of eGFP signal in the test compound, cell control and virus control wells, respectively. The EC50 represents the concentration of a compound at which the virus replication is inhibited with 50%, as measured by a 50% reduction of the eGFP fluorescent intensity compared to the virus control. The EC50 is calculated using linear interpolation (Table 1).
Molecule COc1cc(NC(C(=O)N2CCc3ccc(OC(F)(F)F)cc32)c2ccc(Cl)cc2OCCO)cc(-n2cncn2)c1 (single isomer, unassigned) [Compound 6A] has an EC50 of 0.59 nM. COc1cc(NC(C(=O)N2CCc3cc(OC)c(OC(F)(F)F)cc32)c2ccc(Cl)cc2OCCO)cc(-n2cncn2)c1 (single isomer, unassigned) [Compound 8A] gave an EC50 of 1.5 nM. Work on COc1cc(NC(C(=O)N2CCc3cc(OC)c(C(F)(F)F)cc32)c2ccc(Cl)cc2OCCCC(=O)O)cc(-n2cncn2)c1 (single isomer, unassigned) [Compound 12A] yielded an EC50 of 1.2 nM. With COc1cc(NC(C(=O)N2CCc3ccc(OC(F)(F)F)cc32)c2ccc(Cl)cc2OCCCC(=O)O)cc(-n2cncn2)c1 (single isomer, unassigned) [Compound 13A] the EC50 was 0.12 nM. In the case of COc1cc(NC(C(=O)N2CCc3cc(F)c(OC(F)(F)F)cc32)c2ccc(Cl)cc2OCCCC(=O)O)cc(-n2cncn2)c1 (single isomer, unassigned) [Compound 15B], the EC50 is reported as 0.13 nM.
